According to ChEMBL document CHEMBL4431367, “Role of a gitogenin-type steroidal saponin (3-O-β-d-glucopyranosyl (1→2)-β-d-glucopyranosyl (1→4)-β-d-galactopyranoside-25R,5α-spirostane-2α,3β-diol), isolated from the leaves of Malvastrum coromandelianum in regulating thyrotoxicosis in rats” (2016):
Activity calls are given as the source filed them. No cut-off for these calls is given here.

What was measured:
Rattus norvegicus [1] = test: Antithyroid activity in L-T4-induced Wistar albino rat model of hyperthyroidism assessed as reduction in T4 level at 20 mg/kg, po qd post 12 days of L-T4 challenge measured after 15 days in presence of [125I]-T4 by RIA; assay type: functional
Rattus norvegicus [2] = test: Antithyroid activity in L-T4-induced Wistar albino rat model of hyperthyroidism assessed as inhibition of hepatic 5'-monodeiodinase 1 activity by measuring reduction in T3 level using T4 as substrate at 20 mg/kg, po qd post 12 days of L-T4 challenge measured after 15 days in presence of [125I]-T3 by RIA; assay type: functional
Rattus norvegicus [3] = test: Antithyroid activity in L-T4-induced Wistar albino rat model of hyperthyroidism assessed as reduction in T3 level at 20 mg/kg, po qd post 12 days of L-T4 challenge measured after 15 days in presence of [125I]-T3 by RIA; assay type: functional
Rattus norvegicus [4] = test: Antithyroid activity in L-T4-induced Wistar albino rat model of hyperthyroidism assessed as serum T3 level at 10 mg/kg, po qd post 12 days of L-T4 challenge measured after 15 days in presence of [125I]-T3 by RIA (reference value: 2.31 +/- 0.53 ng/ml); assay type: functional
Rattus norvegicus [5] = test: Antithyroid activity in L-T4-induced Wistar albino rat model of hyperthyroidism assessed as reduction in glucose-6-phosphatase activity at 20 mg/kg, po qd post 12 days of L-T4 challenge measured after 15 days; assay type: functional, organism-based
Rattus norvegicus [6] = test: Antioxidant activity in L-T4-induced Wistar albino rat model of hyperthyroidism assessed as lipid peroxidation level by measuring MDA formation per mg protein at 10 mg/kg, po qd post 12 days of L-T4 challenge measured after 15 days by TBARS assay (reference value: 1.34 +/- 0.19 nM/hr); assay type: functional
Rattus norvegicus [7] = test: Antithyroid activity in L-T4-induced Wistar albino rat model of hyperthyroidism assessed as serum T4 level at 10 mg/kg, po qd post 12 days of L-T4 challenge measured after 15 days in presence of [125I]-T4 by RIA (reference value: 92.14 +/- 3.45 ng/ml); assay type: functional
Rattus norvegicus [8] = test: Antioxidant activity in L-T4-induced Wistar albino rat model of hyperthyroidism assessed as increase in superoxide dismutase activity by measuring pyrogallol oxidization per mg protein at 20 mg/kg, po qd administered post 12 days of L-T4 challenge measured on day 28; assay type: functional, organism-based
Rattus norvegicus [9] = test: Antioxidant activity in L-T4-induced Wistar albino rat model of hyperthyroidism assessed as lipid peroxidation level by measuring MDA formation per mg protein at 30 mg/kg, po qd post 12 days of L-T4 challenge measured after 15 days by TBARS assay (reference value: 1.34 +/- 0.19 nM/hr); assay type: functional
Rattus norvegicus [10] = test: Antithyroid activity in L-T4-induced Wistar albino rat model of hyperthyroidism assessed as serum T3 level at 30 mg/kg, po qd post 12 days of L-T4 challenge measured after 15 days in presence of [125I]-T3 by RIA (reference value: 2.31 +/- 0.53 ng/ml); assay type: functional
Rattus norvegicus [11] = test: Antithyroid activity in L-T4-induced Wistar albino rat model of hyperthyroidism assessed as serum T4 level at 20 mg/kg, po qd post 12 days of L-T4 challenge measured after 15 days in presence of [125I]-T4 by RIA (reference value: 92.14 +/- 3.45 ng/ml); assay type: functional
Rattus norvegicus [12] = test: Antioxidant activity in L-T4-induced Wistar albino rat model of hyperthyroidism assessed as reduction in total GSH content per mg of protein at 20 mg/kg, po qd administered post 12 days of L-T4 challenge measured after 15 days by Ellman's method; assay type: functional, organism-based
Rattus norvegicus [13] = test: Antithyroid activity in L-T4-induced Wistar albino rat model of hyperthyroidism assessed as serum T4 level at 30 mg/kg, po qd post 12 days of L-T4 challenge measured after 15 days in presence of [125I]-T4 by RIA (reference value: 92.14 +/- 3.45 ng/ml); assay type: functional
Rattus norvegicus [14] = test: Antithyroid activity in L-T4-induced Wistar albino rat model of hyperthyroidism assessed as decrease in body weight loss at 20 mg/kg, po qd post 12 days of L-T4 challenge measured after 15 days; assay type: functional, organism-based
Rattus norvegicus [15] = test: Antithyroid activity in L-T4-induced Wistar albino rat model of hyperthyroidism assessed as inhibition of hepatic 5'-monodeiodinase 1 activity using T4 as substrate at 20 mg/kg, po qd post 12 days of L-T4 challenge measured after 15 days in presence of [125I]-T3 by RIA; assay type: functional, organism-based
Rattus norvegicus [16] = test: Antioxidant activity in L-T4-induced Wistar albino rat model of hyperthyroidism assessed as increase in catalase activity by measuring H2O2 utilization per mg protein at 20 mg/kg, po qd administered post 12 days of L-T4 challenge measured every 5 secs for 30 secs on day 28 by spectrophotometric method; assay type: functional, organism-based
Rattus norvegicus [17] = test: Antithyroid activity in L-T4-induced Wistar albino rat model of hyperthyroidism assessed as serum T3 level at 20 mg/kg, po qd post 12 days of L-T4 challenge measured after 15 days in presence of [125I]-T3 by RIA (reference value: 2.31 +/- 0.53 ng/ml); assay type: functional
Rattus norvegicus [18] = test: Antioxidant activity in L-T4-induced Wistar albino rat model of hyperthyroidism assessed as lipid peroxidation level by measuring MDA formation per mg protein at 20 mg/kg, po qd post 12 days of L-T4 challenge measured after 15 days by TBARS assay (reference value: 1.34 +/- 0.19 nM/hr); assay type: functional
Rattus norvegicus [19] = species: Rattus norvegicus; test: animal or person; settings: Wistar, po, read-out: INH
Description: Antithyroid activity in L-T4-induced Wistar albino rat model of hyperthyroidism assessed as inhibition of hepatic 5'-monodeiodinase 1 activity by measuring reduction in T3 level using T4 as substrate at 10 mg/kg, po qd post 12 days of L-T4 challenge measured after 15 days in presence of [125I]-T3 by RIA

Rattus norvegicus [20] = species: Rattus norvegicus; test: animal or person; settings: Wistar, po, read-out: INH; remark: listed apart in the source
Description: Antithyroid activity in L-T4-induced Wistar albino rat model of hyperthyroidism assessed as reduction in T4 level at 10 mg/kg, po qd post 12 days of L-T4 challenge measured after 15 days in presence of [125I]-T4 by RIA

Rattus norvegicus [21] = species: Rattus norvegicus; test: animal or person; settings: Wistar, po, read-out: INH; remark: listed apart in the source
Description: Antithyroid activity in L-T4-induced Wistar albino rat model of hyperthyroidism assessed as reduction in T3 level at 10 mg/kg, po qd post 12 days of L-T4 challenge measured after 15 days in presence of [125I]-T3 by RIA

C[C@@H]1CC[C@@]2(OC1)O[C@H]1C[C@H]3[C@@H]4CC[C@H]5C[C@@H](O[C@@H]6O[C@H](CO)[C@H](O)[C@H](O[C@@H]7O[C@H](CO)[C@@H](O)[C@H](O)[C@H]7O[C@@H]7O[C@H](CO)[C@@H](O)[C@H](O)[C@H]7O)[C@H]6O)[C@H](O)C[C@]5(C)[C@H]4CC[C@]3(C)[C@H]1[C@@H]2C
inhibition in vivo at 20 mg/kg (Rattus norvegicus [1]): 88.8% | inhibition in vivo at 20 mg/kg (Rattus norvegicus [2]): 75.1% | inhibition in vivo at 20 mg/kg (Rattus norvegicus [3]): 56% | Activity (Rattus norvegicus [4]): 1.91 ng/mL | Activity (Rattus norvegicus [5]): Active | Activity (Rattus norvegicus [6]): 0.871 nM/h | Activity (Rattus norvegicus [7]): 79.81 ng/mL | Activity (Rattus norvegicus [8]): Active | Activity (Rattus norvegicus [9]): 0.976 nM/h | Activity (Rattus norvegicus [10]): 0.99 ng/mL | Activity (Rattus norvegicus [11]): 38.7 ng/mL | Activity (Rattus norvegicus [12]): Active | Activity (Rattus norvegicus [13]): 49.85 ng/mL | Activity (Rattus norvegicus [14]): Active | inhibition (Rattus norvegicus [15]): Active | Activity (Rattus norvegicus [16]): Active | Activity (Rattus norvegicus [17]): 0.31 ng/mL | Activity (Rattus norvegicus [18]): 0.312 nM/h

CCCc1cc(=O)[nH]c(=S)[nH]1 [PROPYLTHIOURACIL]
inhibition in vivo at 10 mg/kg (Rattus norvegicus [19]): 59% | inhibition in vivo at 10 mg/kg (Rattus norvegicus [20]): 81% | inhibition in vivo at 10 mg/kg (Rattus norvegicus [21]): 56.5%
